Several values for one entry are separate records, joined by “and”; a condition that tells them apart may be missing. Equal entries are not always repeated.
Key:
[1] = Stability of AST-2660 in human urine at −20° C. and −70° C. for one month (LC-MS/MS); format: in vitro ADME
Experimental: (§1) The detection method established in example 6 was used to detect the content of AST-2660 in the human urine to be tested.
(§2) Matrix: the mixed normal human urine containing an additive Na2HPO4·12H2O. • a: the internal standard working solution: AST-2660-D8 was taken, dissolved with methanol, and diluted to prepare a solution containing about 100 ng per 1 ml. • b: the solution to be tested (no internal standard compound was added to the solution to be tested at this time): it was obtained by taking a blood sample to be tested. • c: the standard working solution (no internal standard compound was added to the standard working solution at this time): an appropriate amount of AST-2660 was taken and accurately weighed, dissolved with methanol and diluted to prepare a solution containing about 1.0 mg per 1 ml, which was used as the standard working stock solution. An appropriate amount of the standard working stock solution was taken, added with the matrix and diluted to prepare standard working solutions with different concentrations containing about 200 ng, 160 ng, 100 ng, 50 ng, 10 ng, 2.0 ng, 1.0 ng and 0.5 ng per 1 ml, respectively. (The solution was stored at −70° C.) • d: the quality control sample solution: an appropriate amount of AST-2660 was taken and accurately weighed, dissolved with methanol, and diluted to prepare a solution containing about 10 μg per 1 ml, which was used as the quality control working stock solution. An appropriate amount of the quality control working stock solution was taken, and added with the matrix to prepare quality control working solutions with different concentrations containing about 150 ng, 60 ng, 15 ng, 1.5 ng and 0.5 ng per 1 ml. (The solution was stored at −70° C.)
(§3) The solution to be tested, the standard working solution and the quality control sample solution were thawed at room temperature and mixed uniformly. 100 μl of the above solution was respectively taken, added with 20 μl of the internal standard and 500 μl of methanol, and vortexed for 3 minutes to mix uniformly, and then centrifuged for 30 minutes at 2143 rcf. 450 μl of supernatant was taken, and then centrifuged for 10 minutes in a 96-well plate at 2143 rcf. It was obtained by taking 300 μl of supernatant.
(§4) Liquid phase conditions: A SHARC 1, 3 μm, 2.1*50 mm or chromatograph column with equivalent performance was used; methanol solution containing low content of ammonium acetate was used; mobile phase B was acetonitrile; the gradient elution was performed according to the following table; column temperature: 20° C.; injection volume: 5 μl.
(§5) Mass spectrometric conditions: electrospray ion source with negative ion scanning mode; spray potential: −4500 V; ion source temperature: 500° C.; collision energy (CE): −22 eV; declustering potential (DP): −55V; entrance potential (EP): −10V; collision chamber exit potential (CXP): −16V; dwell time: 100 ms; high purity nitrogen was used for all gases; AST-2660 ions pairs: m/z 147.0→m/z 62.9; the internal standard AST-2660-D8 ion pairs: m/z 155.0→m/z 62.9.
(§6) The AST-2660 standard working solution, blank sample, zero concentration sample, solution to be tested and quality control working solution with different concentrations after extraction were respectively taken and injected into LC-MS/MS for detection.
(§7) Calculation results: the relationship function y=f (x) of the ratio of the peak area of AST-2660 to that of the internal standard was obtained from AST-2660 standard working solutions with different concentrations. The ratio of the peak area of AST-2660 to that of the internal standard was determined from the solution to be tested after extraction, and substituted into the relationship function y=f (x) to calculate the concentration of the metabolite II in the solution to be tested.

[2] = Freeze/thaw stability of AST-2660 in human urine (LC-MS/MS); format: in vitro ADME
Experimental: as §1, §2, §3, §4, §5, §6, §7

[3] = Stability of treated (extracted) human urine samples of AST-2660 at room temperature (LC-MS/MS); format: physicochemical; conditions: 94 hours at room temperature
Experimental: as §1
Matrix: the mixed normal human urine containing an additive Na2HPO4·12H2O. • a: the internal standard working solution: AST-2660-D8 was taken, dissolved with methanol, and diluted to prepare a solution containing about 100 ng per 1 ml. • b: the solution to be tested (no internal standard compound was added to the solution to be tested at this time): it was obtained by taking a blood sample to be tested. • c: the standard working solution (no internal standard compound was added to the standard working solution at this time): an appropriate amount of AST-2660 was taken and accurately weighed, dissolved with methanol and diluted to prepare a solution containing about 1.0 mg per 1 ml, which was used as the standard working stock solution. […]
as §7

[4] = DilQC (10-fold dilution) nominal 1500 ng/ml, 32 days at −20° C.
[5] = DilQC (10-fold dilution) nominal 1500 ng/ml, 32 days at −70° C.
[6] = QC1 nominal 1.50 ng/ml, 32 days at −70° C. (actually tested on day 34)
[7] = QC4 nominal 150 ng/ml, 32 days at −20° C.
[8] = QC4 nominal 150 ng/ml, 32 days at −70° C.
[9] = human urine, DilQC (10-fold dilution) nominal 1500 ng/ml, 3 freeze/thaw cycles at −70° C.
[10] = human urine, DilQC (10-fold dilution) nominal 1500 ng/ml, 5 freeze/thaw cycles at −70° C.
[11] = human urine, QC1 nominal 1.50 ng/ml, 3 freeze/thaw cycles at −70° C.
[12] = human urine, QC1 nominal 1.50 ng/ml, 5 freeze/thaw cycles at −70° C.
[13] = human urine, QC4 nominal 150 ng/ml, 3 freeze/thaw cycles at −70° C.
[14] = human urine, QC4 nominal 150 ng/ml, 5 freeze/thaw cycles at −20° C.
[15] = human urine, QC4 nominal 150 ng/ml, 5 freeze/thaw cycles at −70° C.

**Q.** What does the source list for `O=P([O-])(N1CC1)N1CC1.[Na+]` [AST-2660]?
**A.** reduction of AST-2660 content ([1]; 32 days of storage at −20° C.): ~90%; change of AST-2660 content (in words) ([1]; 32 days of storage at −70° C.): almost no reduction; AST-2660 concentration, Mean value [1, 4]: 7.23 ng/mL; AST-2660 concentration, single replicates [1, 4]: 6.87 ng/mL and 7.70 ng/mL and 7.73 ng/mL and 6.60 ng/mL; RE (%) vs nominal [1, 4]: −99.5%; AST-2660 concentration, Mean value [1, 5]: 1483 ng/mL; AST-2660 concentration, single replicates [1, 5]: 1570 ng/mL and 1400 ng/mL and 1470 ng/mL and 1490 ng/mL; RE (%) vs nominal [1, 5]: −1.2%; AST-2660 concentration, single replicates ([1]; QC1 nominal 1.50 ng/ml, 32 days at −20° C.): <LLOQ (0.500) ng/ml; AST-2660 concentration, Mean value [1, 6]: 1.71 ng/mL; AST-2660 concentration, single replicates [1, 6]: 1.53 ng/mL and 1.97 ng/mL and 1.72 ng/mL and 1.60 ng/mL; RE (%) vs nominal [1, 6]: 13.7%; AST-2660 concentration, Mean value [1, 7]: 13.4 ng/mL; AST-2660 concentration, single replicates [1, 7]: 13.1 ng/mL and 12.4 ng/mL and 12.9 ng/mL and 15.2 ng/mL; RE (%) vs nominal [1, 7]: −91.1%; AST-2660 concentration, Mean value [1, 8]: 161 ng/mL; AST-2660 concentration, single replicates [1, 8]: 155 ng/mL and 159 ng/mL and 161 ng/mL and 168 ng/mL; RE (%) vs nominal [1, 8]: 7.2%; RE (accuracy), range over three concentration levels ([2]; freezing/thawing at −70° C. for up to 3 cycles, 1.5, 150 and 1500 ng/ml): RE: −11.8% to 12.5%; AST-2660 concentration, Mean value [2, 9]: 1540 ng/mL; AST-2660 concentration, single replicates [2, 9]: 1650 ng/ml and 1500 ng/ml (2×) and 1510 ng/ml; RE (%) vs nominal [2, 9]: 2.7%; AST-2660 concentration, single replicates ([2]; human urine, DilQC (10-fold dilution) nominal 1500 ng/ml, 5 freeze/thaw cycles at −20° C.): <LLOQ (5.00) ng/ml; AST-2660 concentration, Mean value [2, 10]: 1508 ng/mL; AST-2660 concentration, single replicates [2, 10]: 1490 ng/ml and 1500 ng/ml (2×) and 1540 ng/ml; RE (%) vs nominal [2, 10]: 0.5%; AST-2660 concentration, Mean value [2, 11]: 1.60 ng/mL; AST-2660 concentration, single replicates [2, 11]: 1.69 ng/mL and 1.72 ng/mL and 1.47 ng/mL and 1.51 ng/mL; RE (%) vs nominal [2, 11]: 6.5%; AST-2660 concentration, single replicates ([2]; human urine, QC1 nominal 1.50 ng/ml, 5 freeze/thaw cycles at −20° C.): <LLOQ (0.500) ng/ml; AST-2660 concentration, Mean value [2, 12]: 1.73 ng/mL; AST-2660 concentration, single replicates [2, 12]: 2.14 ng/mL and 1.58 ng/mL and 1.68 ng/mL and 1.52 ng/mL; RE (%) vs nominal [2, 12]: 15.3%; AST-2660 concentration, Mean value [2, 13]: 149 ng/mL; AST-2660 concentration, single replicates [2, 13]: 145 ng/ml and 148 ng/ml (2×) and 154 ng/ml; RE (%) vs nominal [2, 13]: −0.8%; AST-2660 concentration, Mean value [2, 14]: 13 ng/mL; AST-2660 concentration, single replicates [2, 14]: 12.2 ng/mL and 13.0 ng/mL and 12.3 ng/mL and 12.5 ng/mL; RE (%) vs nominal [2, 14]: −91.7%; AST-2660 concentration, Mean value [2, 15]: 173 ng/mL; AST-2660 concentration, single replicates [2, 15]: 172 ng/ml (2×) and 169 ng/ml and 178 ng/ml; RE (%) vs nominal [2, 15]: 15.2%; reduction of AST-2660 content ([2]; human urine, freeze-thaw process from −20° C. to room temperature): ~90%; change of AST-2660 content (in words) ([2]; human urine, freeze-thaw process from −70° C. to room temperature): almost no reduction; stability (in words) [3]: stable

Reference: patent US20240140970A1, “A […], AND PREPARATION METHOD AND USE THEREOF” (ASCENTAWITS PHARMACEUTICALS, LTD., priority 2021, published 2024)
